Source: patent US10752587B2, “Homobispiperidinyl derivatives as liver X receptor beta agonists, compositions and their use” (Merck Sharp & Dohme Corp., priority 2015, dated 2020)
Like-named read-outs stand apart in the source and are kept apart here.

Columns and labels:
[1] = molecular target: T1, glutathione-S-transferase (GST) tagged LXRbeta LBD (ligand binding domain) (Homo sapiens, UniProt P55055); experiment: LanthaScreen TR-FRET Liver X Receptor Coactivator Assay, co-activator recruitment to LXRbeta LBD; type: biochemical
T1 construct: purchased Invitrogen pv4658.pps
T1 sequence (P55055 222-460 limits assumed): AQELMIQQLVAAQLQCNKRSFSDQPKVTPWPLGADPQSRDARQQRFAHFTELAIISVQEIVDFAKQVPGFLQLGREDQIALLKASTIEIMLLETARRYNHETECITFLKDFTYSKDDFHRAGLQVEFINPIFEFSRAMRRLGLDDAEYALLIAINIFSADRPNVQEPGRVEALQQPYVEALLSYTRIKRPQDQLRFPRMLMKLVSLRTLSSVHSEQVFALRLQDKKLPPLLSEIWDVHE
How it was run: (§1)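 Readout is time-resolved FRET between a terbium anti-GST antibody bound to the LBD and a fluorescein-tagged coactivator peptide recruited on ligand binding. Plates were incubated at room temperature before reading. Potency (IP) and efficacy (Emax) are referenced to T0901317.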

[2] = molecular target: T2, glutathione-S-transferase (GST) tagged LXRalpha LBD (ligand binding domain) (Homo sapiens, UniProt Q13133); experiment: LanthaScreen TR-FRET Liver X Receptor Coactivator Assay, co-activator recruitment to LXRalpha LBD; type: biochemical
T2 construct: purchased Invitrogen pv4655
T2 sequence (Q13133 209-447 limits assumed): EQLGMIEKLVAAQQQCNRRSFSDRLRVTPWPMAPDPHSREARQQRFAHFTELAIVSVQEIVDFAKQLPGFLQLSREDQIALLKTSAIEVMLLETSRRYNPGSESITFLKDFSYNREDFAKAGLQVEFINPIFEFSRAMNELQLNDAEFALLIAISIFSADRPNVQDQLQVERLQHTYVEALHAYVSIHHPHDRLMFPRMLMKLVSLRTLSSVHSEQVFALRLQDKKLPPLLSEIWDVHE
How it was run: as §1

[3] = efficacy at max dose, in relation to reference dual agonist T0901317, read-out: LXR beta Activity @ max dose (%)
[4] = potency (Inflection Point, IP), co-activator recruitment to LXRbeta LBD, in relation to T0901317, read-out: LXR beta IP
[5] = efficacy at max dose, in relation to reference dual agonist T0901317, read-out: LXR alpha Activity @ max dose (%)
[6] = potency (Inflection Point, IP), co-activator recruitment to LXRalpha LBD, in relation to T0901317
[7] = potency (Inflection Point, IP), co-activator recruitment to LXRalpha LBD, in relation to T0901317, read-out: LXR alpha IP
[8] = efficacy at max dose, in relation to reference dual agonist T0901317
[9] = read-out: LXR beta Activity @ max dose (%)

| Structure (SMILES) | Emax [1, 3] | EC50 [1, 4] | Emax [2, 5] | LXR alpha IP (nM) [2, 6] | further results |
| --- | --- | --- | --- | --- | --- |
| COc1cccc([C@@](O)(C(=O)N2CCC(CN3CCN(c4ccc(C(=O)N(C)C)c(Cl)c4)CC3)CC2)C(F)(F)F)c1 [Example 6-4, 2-chloro-N,N-dimethyl-4-[4-({1-[(2R)-3,3,3-trifluoro-2-hydroxy-2-(3-methoxyphenyl)propanoyl]piperidin-4-yl}methyl)piperazin-1-yl]benzamide] | 34% | 192 nM | 4% | NO IP | – |
| CC(C)Oc1cccc([C@@](O)(C(=O)N2CCC(C)(CC3CCN(c4ccc(C(=O)N(C)C)c(Cl)c4)CC3)CC2)C(F)(F)F)c1 [Example 2-55, 2-chloro-N,N-dimethyl-4-{4-[(4-methyl-1-{(2R)-3,3,3-trifluoro-2-hydroxy-2-[3-(1-methyl-ethoxy)phenyl]propanoyl}piperidin-4-yl)methyl]piperidin-1-yl}benzamide] | 44% | 8 nM | 0% | NO IP | – |
| CNC(=O)c1ccc(N2CCC(CC3CCN(C(=O)[C@](O)(c4cccc(F)c4)C(F)(F)F)CC3)CC2)nc1Cl [Example 7-152, 2-chloro-N-methyl-6-[4-({1-[(2R)-3,3,3-trifluoro-2-(3-fluorophenyl)-2-hydroxypropanoyl]piperidin-4-yl}methyl)piperidin-1-yl]pyridine-3-carboxamide] | 127% | 6 nM | 58% | – | EC50 [2, 7]: 69 nM |
| CC(C)c1cccc([C@@](O)(C(=O)N2CCC(CC3CCN(c4ccc(C(N)=O)c(Cl)c4)CC3)CC2)C(F)(F)F)c1 [Example 12-10, 2-chloro-4-{4-[(1-{(2R)-3,3,3-trifluoro-2-hydroxy-2-[3-(1-methylethyl)phenyl]-propanoyl}piperidin-4-yl)methyl]piperidin-1-yl}benzamide] | – | – | – | – | EC50 ([1]; co-activator recruitment to GST-LXRbeta LBD, TR-FRET, read-out: LXR beta IP (Inflection Point, potency)): 8 nM; Emax ([1]; efficacy in relation to reference dual agonist T0901317, read-out: LXR beta Activity @ max dose): 51%; EC50 ([2]; co-activator recruitment to GST-LXRalpha LBD, TR-FRET, read-out: LXR alpha IP (Inflection Point, potency)): 85 nM; Emax ([2]; efficacy in relation to reference dual agonist T0901317, read-out: LXR alpha Activity @ max dose): 26% |
| CN(C)C(=O)c1ccc(N2CCC(CC3CCN(C(=O)[C@](O)(c4cccc(CC#N)c4)C(F)(F)F)CC3)CC2)cc1Cl [Example 2-120, 2-chloro-4-{4-[(1-{(2R)-2-[3-(cyanomethyl)phenyl]-3,3,3-trifluoro-2-hydroxy-propanoyl}piperidin-4-yl)methyl]piperidin-1-yl}-N,N-dimethyl-benzamide] | 46% | 16 nM | 6% | NO IP | – |
| Cc1cccc([C@@](O)(C(=O)N2CCC(CC3CCN(c4ccc(C(=O)N(C)C)c(Cl)n4)CC3)CC2)C(F)(F)F)c1 [Example 7-88, 2-chloro-N,N-dimethyl-6-[4-({1-[(2R)-3,3,3-trifluoro-2-hydroxy-2-(3-methylphenyl)propanoyl]piperidin-4-yl}methyl)piperidin-1-yl]pyridine-3-carboxamide] | 52% | 4 nM | 15% | NO IP | – |
| CN(C)C(=O)c1ccc(N2CCC(CC3CCN(C(=O)[C@](O)(c4cc(Cl)cc(Cl)c4)C(F)(F)F)CC3)CC2)nc1Cl [Example 7-93, 2-chloro-6-[4-({1-[(2R)-2-(3,5-dichlorophenyl)-3,3,3-trifluoro-2-hydroxypropanoyl]piperidin-4-yl}methyl)piperidin-1-yl]-N,N-dimethylpyridine-3-carboxamide] | 55% | 6 nM | – | NO IP | LXR alpha Activity @ max dose (%) [2, 8]: 1% |
| COc1cc(F)cc([C@](O)(C(=O)N2CCC(CC3CCN(c4ccc(C(=O)N(C)C)c(Cl)n4)CC3)CC2)C(F)(F)F)c1 [Example 7-102, 2-chloro-N,N-dimethyl-6-[4-({1-[(2S)-3,3,3-trifluoro-2-(3-fluoro-5-methoxyphenyl)-2-hydroxypropanoyl]piperidin-4-yl}methyl)piperidin-1-yl]pyridine-3-carboxamide] | 114% | 78 nM | 16% | NO IP | – |
| CN(C)C(=O)c1ccc(N2CCN(CC3CCN(C(=O)[C@](O)(c4ccccc4)C(F)(F)F)CC3)CC2)cc1Cl [Example 6-1, 2-chloro-N,N-dimethyl-4-[4-({1-[(2R)-3,3,3-trifluoro-2-hydroxy-2-phenylpropanoyl]piperidin-4-yl}methyl)piperazin-1-yl]benzamide] | – | 84 nM | 29% | – | Emax [1, 9]: 60%; EC50 [2, 7]: 9030 nM |
| CN(C)C(=O)c1ccc(N2CCC(CC3CCN(C(=O)[C@](O)(c4ccccc4)C(F)F)CC3)CC2)cc1Cl [Example 2-166, 2-chloro-4-[4-({1-[(2R)-3,3-difluoro-2-hydroxy-2-phenyl-propanoyl]piperidin-4-yl}methyl)piperidin-1-yl]-N,N-dimethyl-benzamide] | 46% | 14 nM | 20% | – | EC50 [2, 7]: 296 nM |
| COc1cccc([C@@](O)(C(=O)N2CC(CC3CCN(c4ccc(C(=O)N(C)C)c(Cl)c4)CC3)C2)C(F)(F)F)c1 [Example 2-59, 2-chloro-N,N-dimethyl-4-[4-({1-[(2R)-3,3,3-trifluoro-2-hydroxy-2-(3-methoxyphenyl)propanoyl]azetidin-3-yl}methyl)piperidin-1-yl]benzamide] | 62% | 18 nM | 3% | NO IP | – |
| O=C(c1ccc(N2CCC(CC3CCN(C(=O)[C@](O)(c4cc(Cl)cc(Cl)c4)C(F)(F)F)CC3)CC2)cc1Cl)N1CCC[C@H]1CO [Example 4-24, (2R)-3-(4-{[1-(3-chloro-4-{[(2S)-2-(hydroxymethyl)pyrrolidin-1-yl]carbonyl}phenyl)piperidin-4-yl]methyl}piperidin-1-yl)-2-(3,5-dichlorophenyl)-1,1,1-trifluoro-3-oxopropan-2-ol] | 28% | 7 nM | 0% | NO IP | – |
| COc1cccc([C@@](O)(C(=O)N2CCC(CC3CCN(c4ccc(C(=O)N(C)C)cc4)CC3)CC2)C(F)(F)F)c1 [Example 2-132, N,N-dimethyl-4-[4-({1-[(2R)-3,3,3-trifluoro-2-hydroxy-2-(3-methoxyphenyl)propanoyl]piperidin-4-yl}methyl)piperidin-1-yl]benzamide] | – | 51 nM | – | NO IP | LXR beta Activity @ max dose (%) [1, 8]: 49%; LXR alpha Activity @ max dose (%) [2, 8]: 7% |
| CN(C)C(=O)c1ccc(N2CCC(CC3CCN(C(=O)[C@](O)(c4cccc(OC5CC5)c4)C(F)(F)F)CC3)CC2)nc1Cl [Example 7-106, 2-chloro-6-{4-[(1-{(2R)-2-[3-(cyclopropyloxy)phenyl]-3,3,3-trifluoro-2-hydroxypropanoyl}piperidin-4-yl)methyl]piperidin-1-yl}-N,N-dimethylpyridine-3-carboxamide] | 41% | 5 nM | 0% | NO IP | – |
| CN(C)C(=O)c1ccc(N2CCC(CC3CCN(C(=O)C(O)(c4ccccn4)C4CC4)CC3)CC2)cc1Cl (stereo not drawn) [Example 2-118, 2-chloro-4-[4-({1-[cyclopropyl (hydroxy)pyridin-2-ylacetyl]piperidin-4-yl}methyl)piperidin-1-yl]-N,N-dimethyl-benzamide] | – | – | – | NO IP | EC50 ([1]; LXR beta IP (nM), potency (Inflection Point, IP), co-activator recruitment to LXRbeta LBD, in relation to T0901317): 219 nM; Emax [1, 9]: 68%; Emax ([2]; read-out: LXR alpha Activity @ max dose (%)): 11% |
